Experimental data from PMC6148290, “Endogenous metabolites of vitamin E limit inflammation by targeting 5-lipoxygenase” (Nature Communications, 2018).

Tests used:
[1] = target: T1, 5-LO (Homo sapiens, UniProt P09917); experiment: Activity of purified human recombinant 5-LO (cell-free); assay type: biochemical; set-up: made in house; host or cells: E. coli Bl21 (DE3)
T1 sequence (P09917 1-674): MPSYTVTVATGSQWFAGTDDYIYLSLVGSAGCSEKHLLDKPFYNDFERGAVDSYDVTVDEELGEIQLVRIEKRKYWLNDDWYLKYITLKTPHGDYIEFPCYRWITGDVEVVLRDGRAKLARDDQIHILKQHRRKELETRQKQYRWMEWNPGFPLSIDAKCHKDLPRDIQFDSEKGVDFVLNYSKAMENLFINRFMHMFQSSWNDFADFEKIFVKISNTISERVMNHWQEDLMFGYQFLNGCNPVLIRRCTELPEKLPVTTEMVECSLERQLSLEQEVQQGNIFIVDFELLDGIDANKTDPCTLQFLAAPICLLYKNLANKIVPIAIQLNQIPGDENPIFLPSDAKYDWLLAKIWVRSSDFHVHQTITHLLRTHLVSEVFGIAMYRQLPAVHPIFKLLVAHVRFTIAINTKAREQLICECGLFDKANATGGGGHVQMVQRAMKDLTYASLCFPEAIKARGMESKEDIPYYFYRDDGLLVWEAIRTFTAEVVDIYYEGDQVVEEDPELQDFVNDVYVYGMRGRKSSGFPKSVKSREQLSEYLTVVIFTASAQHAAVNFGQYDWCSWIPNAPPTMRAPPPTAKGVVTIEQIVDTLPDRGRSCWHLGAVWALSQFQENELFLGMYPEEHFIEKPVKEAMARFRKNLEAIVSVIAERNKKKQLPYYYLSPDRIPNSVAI
Description: E. coli Bl21 (DE3) cells were transformed with pT3–5LO plasmid to express human recombinant 5-LO, which was purified by affinity chromatography on an ATP-agarose column. In brief, E. coli was lysed in 50 mM triethanolamine/HCl pH 8.0 plus EDTA (5 mM), soybean trypsin inhibitor (60 µg/ml), phenylmethanesulphonyl fluoride (1 mM), dithiothreitol (1 mM), and lysozyme (1 mg/ml). After sonication (3 × 15 s), the homogenate was centrifuged at 10,000 × g for 15 min and the supernatant again at 40,000 × g for 70 min at 4 °C. The supernatant was applied to an ATP-agarose column (Sigma-Aldrich), and the column was washed with (i) PBS pH 7.4, 1 mM EDTA, (ii) 50 mM phosphate buffer pH 7.4, 0.5 M NaCl, 1 mM EDTA, and (iii) 50 mM phosphate buffer pH 7.4, 1 mM EDTA. 5-LO was eluted with 50 mM phosphate buffer pH 7.4, 1 mM EDTA, 20 mM ATP.
Purified 5-LO (0.5 µg) in PBS pH 7.4 containing EDTA (1 mM) and ATP (1 mM) was pre-incubated with LCMs for 10 min at 4 °C, pre-warmed for 30 s at 37 °C and 5-LO product formation was started by addition of AA (Sigma-Aldrich; 20 µM if not indicated otherwise) plus CaCl2 (2 mM). […] AA was added after incubation for 5 min on ice.

[2] = target: T1, 5-LO; experiment: 5-LO product formation in activated PMNL; assay type: cell-based; set-up: Freshly isolated PMNL (1 × 10^7); endogenous in cells; host or cells: human PMNL freshly isolated from leukocyte concentrates; conditions: cell-based; mean ± s.e.m., n = 3; read-out: IC50, activated PMNL (5-LO)
Description: Human PMNL, monocytes, PBMC, and platelets were freshly isolated from leukocyte concentrates. The protocols for experiments with human blood and blood cells were approved by the ethical commission of the Friedrich-Schiller-University Jena. […] PMNL were recovered from the pellet after hypotonic lysis of erythrocytes. Platelets were obtained from the supernatant and washed with PBS pH 5.9/0.9% NaCl (1:1). […]

[3] = target: T2, 12-LO (Homo sapiens, UniProt P18054); experiment: 12-LO product formation in A23187/AA-activated PMNL; assay type: cell-based; conditions: at 3 µM; mean ± s.e.m., n = 3; n.i. no inhibition
T2 construct: 12-HETE (12-LO product from platelets in PMNL preparations); endogenous in cells; host or cells: platelets contaminating human PMNL preparations
T2 sequence (P18054 1-663): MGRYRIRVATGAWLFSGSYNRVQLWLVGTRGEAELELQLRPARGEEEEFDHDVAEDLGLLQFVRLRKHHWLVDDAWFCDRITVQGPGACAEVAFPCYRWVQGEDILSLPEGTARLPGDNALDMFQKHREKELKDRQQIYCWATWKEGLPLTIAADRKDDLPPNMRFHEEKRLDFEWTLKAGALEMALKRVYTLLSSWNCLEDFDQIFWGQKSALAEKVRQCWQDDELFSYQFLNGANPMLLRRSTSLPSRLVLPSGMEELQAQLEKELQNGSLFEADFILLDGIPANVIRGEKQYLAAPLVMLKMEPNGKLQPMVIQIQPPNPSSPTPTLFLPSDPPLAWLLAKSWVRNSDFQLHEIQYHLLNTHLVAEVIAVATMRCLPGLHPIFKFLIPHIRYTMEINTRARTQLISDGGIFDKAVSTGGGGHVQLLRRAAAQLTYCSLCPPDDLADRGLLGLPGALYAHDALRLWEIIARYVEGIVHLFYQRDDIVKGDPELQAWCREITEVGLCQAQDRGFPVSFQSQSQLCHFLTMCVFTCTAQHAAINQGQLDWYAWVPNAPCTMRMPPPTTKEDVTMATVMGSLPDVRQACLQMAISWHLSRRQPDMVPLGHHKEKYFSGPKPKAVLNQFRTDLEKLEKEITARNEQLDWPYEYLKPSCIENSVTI
Description: (§1) Cells were washed and medium was exchanged. Freshly isolated PMNL (1 × 10^7) and stably transfected HEK-293 (1 × 10^6) cells were suspended in PBS pH 7.4 containing 1 mg/ml glucose and 1 mM CaCl2. […] A23187- and A23187/AA-treated PMNL and A23187/AA-treated HEK-293 (5-LO_wt), HEK-293 (5-LO_3W) and HEK-293 (5-LO_Arg101Asp) cells produced 135 ± 21, 636 ± 112, 300 ± 59, 133 ± 29, 55 ± 9 ng 5-LO products, respectively. PMNL synthesized 29 ± 6 ng 12-HETE and 97 ± 23 ng 15-HETE when challenged with A23187/AA. 5-LO products from monocytes were analyzed by UPLC-MS/MS.

[4] = tested on: 15-LO; experiment: 15-LO product formation in A23187/AA-activated PMNL; assay type: cell-based, human; conditions: at 3 µM; mean ± s.e.m., n = 3; n.i. no inhibition
Description: as §1

[5] = tested on: peripheral blood mononuclear cells; experiment: Cell viability of PBMC (MTT assay); assay type: cell-based, human; conditions: 24 h
Description: The formazan product was solubilized with SDS (10% in 20 mM HCl), and absorbance was measured at 570 nm using a Multiskan Spectrum microplate reader (Thermo Fisher Scientific).

[6] = cell-free, mean ± s.e.m., n = 3, read-out: IC50, human recombinant 5-LO
[7] = at 1 and 10 µM (one entry for both), n.i. no inhibition
[8] = human recombinant 5-LO, read-out: IC50 for 5-LO inhibition

| SMILES | IC50 [1, 6] | IC50 [2] | 12-LO product formation/PMNL, residual activity [3] | 15-LO product formation/PMNL, residual activity [4] | Cell viability/peripheral blood mononuclear cells, residual viability [5, 7] | also measured |
| --- | --- | --- | --- | --- | --- | --- |
| Cc1cc(O)c(C)c2c1O[C@](C)(CCC[C@H](C)CCC[C@H](C)CCCC(C)C)CC2 [1b] | 0.75 ± 0.15 µM | 57 ± 2 µM | n.i. | n.i. | n.i. |  |
| Cc1c(O)cc2c(c1C)O[C@](C)(CCC[C@H](C)CCC[C@H](C)CCCC(C)C)CC2 [1c] | 0.91 ± 0.15 µM | 502 ± 199 µM | n.i. | n.i. | n.i. |  |
| CC(C)=CCC/C(C)=C/CC/C(C)=C/CC[C@]1(C)CCc2c(C)c(O)c(C)c(C)c2O1 [1e] | 0.33 ± 0.08 µM | 277 ± 90 µM | 88.9 ± 4.9 % of control | n.i. |  |  |
| CC(C)=CCC/C(C)=C/CC/C(C)=C/CC[C@]1(C)CCc2c(C)c(O)cc(C)c2O1 [1f] | 0.19 ± 0.03 µM | 95 ± 5 µM | 65.4 ± 6.1 % of control | n.i. |  |  |
| CC(C)=CCC/C(C)=C/CC/C(C)=C/CC[C@]1(C)CCc2cc(O)c(C)c(C)c2O1 [1g] | 0.2 ± 0.06 µM | 132 ± 33 µM | 70.8 ± 2.3 % of control | n.i. |  |  |
| CC(C)=CCC/C(C)=C/CC/C(C)=C/CC[C@]1(C)CCc2cc(O)cc(C)c2O1 [1h] | 0.17 ± 0.1 µM | 60 ± 15 µM | 87.6 ± 8.5 % of control | n.i. | n.i. |  |
| C/C(=C\CC/C(C)=C/CC/C(C)=C/CC[C@]1(C)CCc2c(C)c(O)c(C)c(C)c2O1)CO [2e] | 0.11 ± 0.01 µM | 0.27 ± 0.1 µM | 62.7 ± 15.2 % of control | 88.0 ± 17.0 % of control |  |  |
| C/C(=C\CC/C(C)=C/CC/C(C)=C/CC[C@]1(C)CCc2c(C)c(O)cc(C)c2O1)CO [2f] | 0.09 ± 0.03 µM | 0.38 ± 0.09 µM | 57.8 ± 13.6 % of control | 78.9 ± 14.8 % of control |  | IC50 [1, 8]: < 0.1 µM |
| C/C(=C/CC/C(C)=C/CC/C(C)=C/CC[C@]1(C)CCc2cc(O)c(C)c(C)c2O1)CO [3g] | 0.12 ± 0.03 µM | 0.14 ± 0.02 µM |  | 168.8 ± 1.2 % of control |  | Cell viability/peripheral blood mononuclear cells, residual viability ([5]; at 1 µM): n.i.; Cell viability/peripheral blood mononuclear cells, residual viability ([5]; at 10 µM): 43.7 ± 16.2 % of control |
| Cc1cc(O)cc2c1O[C@](C)(CCC[C@H](C)CCC[C@H](C)CCCC(C)C(=O)O)CC2 (stereo partly drawn) [4d] |  |  | 74.5 ± 5.9 % of control | 121.6 ± 10.9 % of control | n.i. |  |
| C/C(=C\CC/C(C)=C/CC[C@]1(C)CCc2c(C)c(O)c(C)c(C)c2O1)CC/C=C(\C)C(=O)O [4e] |  |  | 72.6 ± 13.6 % of control | 181.5 ± 26.5 % of control | n.i. |  |
| C/C(=C\CC/C(C)=C/CC[C@]1(C)CCc2c(C)c(O)cc(C)c2O1)CC/C=C(\C)C(=O)O [4f] |  |  | 70.0 ± 14.1 % of control | 186.1 ± 35.8 % of control | n.i. |  |
| C/C(=C\CC[C@]1(C)CCc2cc(O)cc(C)c2O1)CC/C=C(\C)CCCC(C)C(=O)O (stereo partly drawn) [4l] |  |  |  |  |  | IC50 [1]: 0.17 ± 0.04 µM |
| Cc1c(C)c2c(c(C)c1O)CCC(C)(CCCC(C)C(=O)O)O2 (stereo not drawn) [5a, 3,4-dihydro-6-hydroxy-α,2,5,7,8-pentamethyl-2H-1-benzopyran-2-pentanoic acid] |  |  | 56.7 ± 3.0 % of control | n.i. |  | IC50 [1, 8]: 0.75 µM |
| Cc1c(C)c2c(c(C)c1O)CCC(C)(CCC(=O)O)O2 (stereo not drawn) [6a, 2,5,7,8-tetramethyl-2-(2′-carboxyethyl)-6-hydroxychroman] |  |  | 87.2 ± 3.6 % of control | n.i. |  |  |
| Cc1c(O)cc2c(c1C)OC(C)(CCC(=O)O)CC2 (stereo not drawn) [6c, 2,7,8-trimethyl-2-(2′-carboxyethyl)-6-hydroxychroman] |  |  | 89.9 ± 4.2 % of control | n.i. |  |  |
| Cc1cc(O)cc2c1OC(C)(CCC(=O)O)CC2 (stereo not drawn) [6d, 2,8-dimethyl-2-(2′-carboxyethyl)-6-hydroxychroman] |  |  | n.i. | n.i. |  |  |
| C/C(=C\CC/C(C)=C/CC[C@]1(C)CCc2cc(O)cc(C)c2O1)CCC=C(CO)CO [compound 8] |  |  |  |  |  | IC50 [1]: 0.15 ± 0.04 µM |
| C/C(=C\CC/C(C)=C/CC[C@]1(C)CCc2cc(O)c(C)c(C)c2O1)CCC=C(CO)CO [compound 9] |  |  |  |  |  | IC50 [1]: 0.11 µM |
| C/C(=C\CC/C(C)=C/CC[C@]1(C)CCc2cc(Oc3c(O)cc(C)c4c3CC[C@@](C)(CC/C=C(\C)CC/C=C(\C)CCC=C(CO)CO)O4)c(C)c(C)c2O1)CCC=C(CO)CO [compound 10, (δ,γ)-bi-O-amplexichromanol] |  |  |  |  |  | IC50 ([1]; purified human recombinant 5-LO, mean ± s.e.m., n = 3, read-out: IC50 (5-LO)): 0.4 ± 0.11 µM |
